Measured values reported in patent US12576093B2, “Pharmaceutical composition for subcutaneous administration” (MANNKIND CORPORATION, priority 2019, dated 2026).
Values joined by “and” are separate entries in the source; they are usually repeats but may differ in a detail not shown here. Equal entries are not always repeated.

Assays:
[1] = oral; cited from earlier work
[2] = Pharmacokinetics after 24-hour subcutaneous infusion via fluid delivery device in male Beagle dogs (plasma, LC-MS/MS); settings: for AUC(0-t): AUClast; for MRT last: MRTlast
[3] = Group 1, SC infusion 40 mg/animal, individual animals
[4] = SC infusion 76 mg/animal, individual animals
[5] = dogs, 40 mg/24 h and 76 mg/24 h SC infusion, both dosages
[6] = male, Beagle, dog, in vivo, sc, 3.21 mg/kg, Group 1, SC infusion, dose 3.21 mg/kg, mean
[7] = male, Beagle, dog, in vivo, sc, 5.45 mg/kg, Group 2, SC infusion, dose 5.45 mg/kg, mean
[8] = male, Beagle, dog, in vivo, sc, 40 mg, Group 1, SC infusion 40 mg/animal, mean
[9] = male, Beagle, dog, in vivo, sc, 40 mg/animal, Plasma concentration of CBD, Group 1, SC infusion 40 mg/animal, individual animals, BLOQ = below 1 ng/mL
[10] = male, Beagle, dog, in vivo, sc, 40 mg/animal, Plasma concentration of CBD, Group 1, SC infusion 40 mg/animal, mean (BLOQ samples excluded)
[11] = male, Beagle, dog, in vivo, sc, 76 mg, SC infusion 76 mg/animal, mean
[12] = male, Beagle, dog, in vivo, sc, 76 mg/animal, Plasma concentration of CBD, SC infusion 76 mg/animal, individual animals, BLOQ = below 1 ng/mL
[13] = male, Beagle, dog, in vivo, sc, 76 mg/animal, Plasma concentration of CBD, SC infusion 76 mg/animal, mean (BLOQ samples excluded)

With `C=C(C)[C@@H]1CCC(C)=C[C@H]1c1c(O)cc(CCCCC)cc1O` [CBD, Cannabidiol] as the molecule, how does the “Fraction lost in the liver through the digestion” value [1] read?
Its value is “approximately 94%”.

And the AUClast [2, 3]?
Its AUClast is 0.363 µg·h/mL and 0.0199 µg·h/mL and 0.127 µg·h/mL and 0.371 µg·h/mL.

And the Cmax [2, 3]?
Its Cmax is 14.2 ng/mL (2×) and 5.34 ng/mL and 5.83 ng/mL.

What about the MRTlast [2, 3] of the same molecule?
The MRTlast was 26.0 h and 3.61 h and 16.3 h.

And the tmax [2, 3]?
The tmax was 30.0 hr (3×) and 3.00 hr.

And the Cmax ([2]; Group 1, SC infusion, dose 3.21 mg/kg, mean)?
Its Cmax is 9.92 ng(mL.

And the Cmax ([2]; Group 2, SC infusion, dose 5.45 mg/kg, mean)?
The Cmax was 11.7 ng(mL.

What about the AUClast [2, 4] of the same molecule?
Its AUClast is 0.217 µg·h/mL and 0.493 µg·h/mL and 0.129 µg·h/mL and 0.372 µg·h/mL.

What about the Cmax [2, 4] of the same molecule?
Its Cmax is 10.3 ng/mL and 17.5 ng/mL and 5.24 ng/mL and 13.6 ng/mL.

What about the MRTlast [2, 4] of the same molecule?
Its MRTlast is 30.4 h and 18.9 h and 21.5 h.

And the tmax [2, 4]?
The tmax was 24.0 hr (2×) and 2.00 hr and 18.0 hr.

And the “Absorption: first detection of CBD levels in blood” value [2, 5]?
Its value is “detected within an hour of the beginning of infusion”.

What about the “Elimination: CBD detectability after end of infusion” value [2, 5] of the same molecule?
The value was “still detectable 24 h after completion of fluid delivery device infusion”.

What about the “Constancy of CBD concentration in the blood” value ([2]; group 1 (40 mg CBD/animal) and group 2 (76 mg CBD/animal), FIGS. 24 and 25) of the same molecule?
Its value is “constant concentration of CBD in the blood with a minimal variation is reached after few hours”.

What about the AUC(0-t) [2, 6] of the same molecule?
The AUC(0-t) was 0.221 µg·h/mL.

And the MRT last [2, 6]?
Its MRT last is 17.6 h.

What about the tmax ([2]; male, Beagle, dog, in vivo, sc, 3.21 mg/kg, Tmax, Group 1, SC infusion, dose 3.21 mg/kg, mean) of the same molecule?
Its tmax is 23.3 h.

And the AUC(0-t) [2, 7]?
The AUC(0-t) was 0.303 µg·h/mL.

And the MRT last [2, 7]?
Its MRT last is 24.3 h.

What about the tmax ([2]; male, Beagle, dog, in vivo, sc, 5.45 mg/kg, Tmax, Group 2, SC infusion, dose 5.45 mg/kg, mean) of the same molecule?
Its tmax is 17 h.

And the AUC(0-t) [2, 8]?
The AUC(0-t) was 0.221 µg·h/mL.

What about the Cmax ([2]; male, Beagle, dog, in vivo, sc, 40 mg, Cmax, Group 1, SC infusion 40 mg/animal, mean) of the same molecule?
Its Cmax is 9.92 ng/mL.

What about the MRT last [2, 8] of the same molecule?
Its MRT last is 17.6 h.

And the tmax ([2]; male, Beagle, dog, in vivo, sc, 40 mg, tmax, Group 1, SC infusion 40 mg/animal, mean)?
Its tmax is 23.3 h.

What about the concentration at 0.083 h ([2]; male, Beagle, dog, in vivo, sc, 40 mg/animal, Plasma concentration of CBD, Group 1, SC infusion 40 mg/animal, 0.083 hr, individual animals, BLOQ = below 1 ng/mL) of the same molecule?
The concentration at 0.083 h was 5.76 ng/mL.

What about the concentration at 0.5 h ([2]; male, Beagle, dog, in vivo, sc, 40 mg/animal, Plasma concentration of CBD, Group 1, SC infusion 40 mg/animal, 0.5 hr, mean (BLOQ samples excluded)) of the same molecule?
The concentration at 0.5 h was 3.28 ng/mL.

What about the concentration at 0.75 h [2, 9] of the same molecule?
Its concentration at 0.75 h is 2.83 ng/mL.

And the concentration at 0.75 h [2, 10]?
The concentration at 0.75 h was 2.45 ng/mL.

What about the concentration at 1 h [2, 10] of the same molecule?
The concentration at 1 h was 2.63 ng/mL.

What about the concentration at 2 h [2, 10] of the same molecule?
Its concentration at 2 h is 3.72 ng/mL.

What about the concentration at 3 h [2, 10] of the same molecule?
The concentration at 3 h was 7.36 ng/mL.

And the concentration at 4 h [2, 10]?
The concentration at 4 h was 4.1 ng/mL.

And the concentration at 5 h [2, 10]?
The concentration at 5 h was 5.11 ng/mL.

What about the concentration at 6 h [2, 10] of the same molecule?
Its concentration at 6 h is 6.12 ng/mL.

What about the concentration at 7 h [2, 10] of the same molecule?
The concentration at 7 h was 5.53 ng/mL.

And the concentration at 8 h [2, 9]?
Its concentration at 8 h is 5.06 ng/mL.

What about the concentration at 8 h [2, 10] of the same molecule?
The concentration at 8 h was 6.03 ng/mL.

What about the concentration at 10 h [2, 10] of the same molecule?
Its concentration at 10 h is 5.92 ng/mL.

What about the concentration at 12 h [2, 9] of the same molecule?
Its concentration at 12 h is 4.47 ng/mL.

And the concentration at 12 h [2, 10]?
Its concentration at 12 h is 5.12 ng/mL.

What about the concentration at 18 h [2, 9] of the same molecule?
Its concentration at 18 h is 3.31 ng/mL.

What about the concentration at 24 h [2, 9] of the same molecule?
Its concentration at 24 h is 9.48 ng/mL.

And the concentration at 24 h [2, 10]?
The concentration at 24 h was 8.82 ng/mL.

What about the concentration at 30 h [2, 10] of the same molecule?
Its concentration at 30 h is 11.4 ng/mL.

What about the concentration at 36 h ([2]; male, Beagle, dog, in vivo, sc, 40 mg/animal, Plasma concentration of CBD, Group 1, SC infusion 40 mg/animal, 36 hr, individual animals, BLOQ = below 1 ng/mL) of the same molecule?
Its concentration at 36 h is 9.05 ng/mL.

What about the concentration at 36 h ([2]; male, Beagle, dog, in vivo, sc, 40 mg/animal, Plasma concentration of CBD, Group 1, SC infusion 40 mg/animal, 36 hr, mean (BLOQ samples excluded)) of the same molecule?
The concentration at 36 h was 7.59 ng/mL.

And the concentration at 48 h ([2]; male, Beagle, dog, in vivo, sc, 40 mg/animal, Plasma concentration of CBD, Group 1, SC infusion 40 mg/animal, 48 hr, individual animals, BLOQ = below 1 ng/mL)?
The concentration at 48 h was 4.2 ng/mL.

And the concentration at 48 h ([2]; male, Beagle, dog, in vivo, sc, 40 mg/animal, Plasma concentration of CBD, Group 1, SC infusion 40 mg/animal, 48 hr, mean (BLOQ samples excluded))?
The concentration at 48 h was 5.15 ng/mL.

And the AUC(0-t) [2, 11]?
Its AUC(0-t) is 0.303 µg·h/mL.

And the Cmax ([2]; male, Beagle, dog, in vivo, sc, 76 mg, Cmax, SC infusion 76 mg/animal, mean)?
The Cmax was 11.7 ng/mL.

What about the MRT last ([2]; male, Beagle, dog, in vivo, sc, 76 mg, SC infusion 76 mg/animal, individual animals) of the same molecule?
Its MRT last is 26.5 h.

What about the MRT last [2, 11] of the same molecule?
Its MRT last is 24.3 h.

What about the tmax ([2]; male, Beagle, dog, in vivo, sc, 76 mg, tmax, SC infusion 76 mg/animal, mean) of the same molecule?
The tmax was 17 h.

And the concentration at 1 h [2, 12]?
The concentration at 1 h was 3.73 ng/mL.

And the concentration at 1 h [2, 13]?
The concentration at 1 h was 5.31 ng/mL.

And the concentration at 2 h [2, 12]?
Its concentration at 2 h is 3.69 ng/mL.

And the concentration at 2 h [2, 13]?
The concentration at 2 h was 4.97 ng/mL.

What about the concentration at 3 h [2, 13] of the same molecule?
Its concentration at 3 h is 4.38 ng/mL.

What about the concentration at 4 h [2, 13] of the same molecule?
The concentration at 4 h was 3.31 ng/mL.

What about the concentration at 5 h [2, 12] of the same molecule?
The concentration at 5 h was 2.42 ng/mL.

What about the concentration at 5 h [2, 13] of the same molecule?
The concentration at 5 h was 2.17 ng/mL.

And the concentration at 6 h [2, 13]?
Its concentration at 6 h is 5.35 ng/mL.

What about the concentration at 7 h [2, 13] of the same molecule?
Its concentration at 7 h is 4.78 ng/mL.

What about the concentration at 8 h [2, 13] of the same molecule?
Its concentration at 8 h is 5.14 ng/mL.

What about the concentration at 10 h [2, 13] of the same molecule?
Its concentration at 10 h is 4.19 ng/mL.

What about the concentration at 12 h [2, 13] of the same molecule?
The concentration at 12 h was 6.03 ng/mL.

What about the concentration at 18 h [2, 13] of the same molecule?
The concentration at 18 h was 5.93 ng/mL.

What about the concentration at 24 h [2, 13] of the same molecule?
Its concentration at 24 h is 9.68 ng/mL.

And the concentration at 30 h [2, 13]?
The concentration at 30 h was 9.04 ng/mL.

And the concentration at 36 hr ([2]; male, Beagle, dog, in vivo, sc, 76 mg/animal, Plasma concentration of CBD, SC infusion 76 mg/animal, 36 hr, mean (BLOQ samples excluded))?
The concentration at 36 hr was 6.04 ng/mL.

What about the concentration at 48 hr ([2]; male, Beagle, dog, in vivo, sc, 76 mg/animal, Plasma concentration of CBD, SC infusion 76 mg/animal, 48 hr, mean (BLOQ samples excluded)) of the same molecule?
Its concentration at 48 hr is 8.32 ng/mL.
